Laboratory results as given in ChEMBL document CHEMBL1138471, “Synthesis and inotropic evaluation of 1-substituted-N-(4,5-dihydro-1-methyl-[1,2,4]triazolo[4,3-a]quinolin-7-yl)piperidine-4-carboxamides” (2009).
Activity calls are given as the source filed them. No cut-off for these calls is given here.

How the values were obtained:
Oryctolagus cuniculus [1] = organism: Oryctolagus cuniculus; assay: (§1) Positive inotropic activity in New Zealand White rabbit beating left atrium assessed as increase in stroke volume at 100 umol/L after 36 mins; assay type: functional; settings: Cardiac atrium
[2] = as §1; assay type: functional, Oryctolagus cuniculus, Cardiac atrium
Oryctolagus cuniculus [3] = organism: Oryctolagus cuniculus; assay: Negative inotropic activity in New Zealand White rabbit beating left atrium assessed as decrease in stroke volume at 100 umol/L after incubation for longer period; assay type: functional, tissue-based; settings: Cardiac atrium
Oryctolagus cuniculus [4] = organism: Oryctolagus cuniculus; assay: Positive inotropic activity in New Zealand White rabbit beating left atrium assessed as increase in stroke volume after 36 mins; assay type: functional, tissue-based; settings: Cardiac atrium
Oryctolagus cuniculus [5] = organism: Oryctolagus cuniculus; assay: Positive inotropic activity in New Zealand White rabbit beating left atrium assessed as increase in stroke volume at 300 umol/L after 36 mins; assay type: functional, tissue-based; settings: Cardiac atrium

SMILES	Activity (Oryctolagus cuniculus [1])	Activity [2] [%]	other results
Cc1nnc2n1-c1ccc(NC(=O)C3CCN(Cc4ccc(F)cc4)CC3)cc1CC2	inactive		
COc1cc(CN2CCC(C(=O)Nc3ccc4c(c3)CCc3nnc(C)n3-4)CC2)ccc1OCc1cccc([N+](=O)[O-])c1	inactive		
COc1cc(CN2CCC(C(=O)Nc3ccc4c(c3)CCc3nnc(C)n3-4)CC2)ccc1OCc1c(Cl)cccc1Cl	inactive		
COc1cc(CN2CCC(C(=O)Nc3ccc4c(c3)CCc3nnc(C)n3-4)CC2)ccc1OCc1ccc(Cl)cc1Cl		2.78	
COc1ccc(CN2CCC(C(=O)Nc3ccc4c(c3)CCc3nnc(C)n3-4)CC2)cc1	inactive		
COc1cc(CN2CCC(C(=O)Nc3ccc4c(c3)CCc3nnc(C)n3-4)CC2)ccc1OCc1ccccc1Br	inactive		
Cc1nnc2n1-c1ccc(NC(=O)C3CCN(Cc4ccccc4[N+](=O)[O-])CC3)cc1CC2	inactive		
COc1cc(CN2CCC(C(=O)Nc3ccc4c(c3)CCc3nnc(C)n3-4)CC2)ccc1OCc1ccccc1[N+](=O)[O-]	inactive		
Cc1nnc2n1-c1ccc(NC(=O)C3CCN(Cc4ccc(Cl)cc4Cl)CC3)cc1CC2		7.83	Activity (Oryctolagus cuniculus [3]): Active
COc1ccc(COc2ccc(CN3CCC(C(=O)Nc4ccc5c(c4)CCc4nnc(C)n4-5)CC3)cc2OC)cc1		6.08	Activity (Oryctolagus cuniculus [3]): Active
Cc1nnc2n1-c1ccc(NC(=O)C3CCN(Cc4ccc(Cl)cc4)CC3)cc1CC2	inactive		
Cc1nnc2n1-c1ccc(NC(=O)C3CCN(Cc4ccccc4F)CC3)cc1CC2		11.92	Activity (Oryctolagus cuniculus [4]): Dose-dependent effect; Activity (Oryctolagus cuniculus [5]): inactive
COc1ccc(CN2CCC(C(=O)Nc3ccc4c(c3)CCc3nnc(C)n3-4)CC2)cc1OC		1.87	
Cc1[nH]c(=O)c(C#N)cc1-c1ccncc1 [MILRINONE]		6.36	
COc1cc(CN2CCC(C(=O)Nc3ccc4c(c3)CCc3nnc(C)n3-4)CC2)ccc1OCc1ccccc1F		7.41	Activity (Oryctolagus cuniculus [4]): Dose-dependent effect; Activity (Oryctolagus cuniculus [5]): inactive
Cc1nnc2n1-c1ccc(NC(=O)C3CCN(Cc4cccc(F)c4)CC3)cc1CC2		1.56	

SMILES	Activity (Oryctolagus cuniculus [1])	Activity [2] [%]	other results
COc1cc(CN2CCC(C(=O)Nc3ccc4c(c3)CCc3nnc(C)n3-4)CC2)ccc1OCc1ccccc1		5.19	
Cc1ccc(CN2CCC(C(=O)Nc3ccc4c(c3)CCc3nnc(C)n3-4)CC2)cc1	inactive		
COc1cc(CN2CCC(C(=O)Nc3ccc4c(c3)CCc3nnc(C)n3-4)CC2)ccc1OCc1ccccc1Cl	inactive		
Cc1nnc2n1-c1ccc(NC(=O)C3CCN(Cc4cccc(Cl)c4)CC3)cc1CC2		9.97	
Cc1nnc2n1-c1ccc(NC(=O)C3CCN(Cc4ccccc4Cl)CC3)cc1CC2		0.4	Activity (Oryctolagus cuniculus [3]): Active
Cc1nnc2n1-c1ccc(NC(=O)C3CCN(Cc4ccc5c(c4)OCO5)CC3)cc1CC2		2.96	
COc1cc(CN2CCC(C(=O)Nc3ccc4c(c3)CCc3nnc(C)n3-4)CC2)ccc1OCc1ccc(C)cc1	inactive		
Cc1nnc2n1-c1ccc(NC(=O)C3CCN(Cc4cccc([N+](=O)[O-])c4)CC3)cc1CC2		8.14	
Cc1nnc2n1-c1ccc(NC(=O)C3CCN(Cc4c(Cl)cccc4Cl)CC3)cc1CC2	inactive		
COc1cc(CN2CCC(C(=O)Nc3ccc4c(c3)CCc3nnc(C)n3-4)CC2)ccc1OCc1cccc(Cl)c1		5.56	Activity (Oryctolagus cuniculus [3]): Active
Cc1nnc2n1-c1ccc(NC(=O)C3CCN(Cc4ccccc4)CC3)cc1CC2	inactive		
COc1ccc(COc2ccc(CN3CCC(C(=O)Nc4ccc5c(c4)CCc4nnc(C)n4-5)CC3)cc2OC)cc1OC	inactive		
Cc1nnc2n1-c1ccc(NC(=O)C3CCN(Cc4ccccc4Br)CC3)cc1CC2		1.67	
COc1cc(CN2CCC(C(=O)Nc3ccc4c(c3)CCc3nnc(C)n3-4)CC2)ccc1OCc1ccc(F)cc1	inactive		
COc1cc(CN2CCC(C(=O)Nc3ccc4c(c3)CCc3nnc(C)n3-4)CC2)ccc1OCc1ccc(Cl)cc1		5.13	Activity (Oryctolagus cuniculus [3]): Active
COc1cc(CN2CCC(C(=O)Nc3ccc4c(c3)CCc3nnc(C)n3-4)CC2)ccc1OCc1cccc(F)c1		0.18	
